Experimental findings from ChEMBL document CHEMBL5236551, “Andrographolide and its derivatives: Current achievements and future perspectives” (Eur J Med Chem, 2021) are described below.

As usually defined, the inhibition in vivo is how much of the control response was suppressed. By IC50 is commonly meant the concentration at which inhibition is half-maximal. What is called inhibition is the change of the read-out against control, counted positive when it falls. For orientation: GI50 means the concentration that inhibits growth by half.

Where only a bound is given, the exact number is not on record here.

The test system of test [1] is Mus musculus. Put plainly: Anti-inflammatory activity in BALB/c mouse model of colitis assessed as suppression of DSS-induced NF-kappa-B p65 expression in colon tissue at 200 mg/kg, IG for 8 days relative to control. In kind it is functional. To be noted: po, 192 h, time 8 day.
Test [2] can be described thus: Inhibition of NF-kappa-B signaling pathway in human HeLa cells assessed as decrease in phosphorylated NF-kappaB p65 level treated for 4 hrs by Western blot analysis. Type of test: cell-based.
Test [3] deals with Staphylococcus aureus. Put plainly: Antibacterial activity against Staphylococcus aureus assessed as bacterial growth inhibition incubated for 24 hrs. In kind it is functional, organism-based.
Test [4] relates to Escherichia coli. The test is described as follows: Antibacterial activity against Escherichia coli assessed as bacterial growth inhibition incubated for 24 hrs. Type of test: functional, organism-based.
The test system of test [5] is Enterococcus faecalis. The test is described as follows: Antibacterial activity against Enterococcus faecalis assessed as bacterial growth inhibition incubated for 24 hrs. Type of test: functional, organism-based.
For test [6], the system named is Human immunodeficiency virus 1. The test is described as follows: Antiviral activity against HIV-1 infected in human C8166 cells. In kind it is functional, organism-based. Conditions: Human immunodeficiency virus 1, C8166.
Test [7] deals with Rattus norvegicus. Put plainly: Anti-fibrotic activity in rat model of bleomycin-induced lung fibrosis assessed as inhibition rate at 250 mg/kg relative to control. In kind it is functional.
Test [8] deals with Rattus norvegicus. Put plainly: Anti-fibrotic activity in rat model of isoproterenol-induced myocardial fibrosis assessed as inhibition rate at 15 mg/kg relative to control. Type of test: functional. Conditions: Myocardium.
Test [9] has as its system Rattus norvegicus. The test is described as follows: Anti-fibrotic activity in rat model of unilateral ureteral obstruction-induced renal fibrosis assessed as inhibition rate at 0.15 mmol/Kg relative to control. To be noted: Kidney. In kind it is functional.
The nature of test [10]: Cytotoxicity against rat ASK cells assessed as cell growth inhibition by SRB assay. Type of test: functional. Conditions: read-out: ED50 (the source's name). In general terms: The SRB assay estimates cell density from bound dye.
Test [11] is described as follows: Cytotoxicity against human Lu1 cells assessed as cell growth inhibition by SRB assay. To be noted: read-out: ED50 (the source's name). In kind it is functional.
Test [12] relates to Col2. The test is described as follows: Cytotoxicity against human Col2 cells assessed as cell growth inhibition by SRB assay. In kind it is functional. To be noted: read-out: ED50 (the source's name).
For test [13], the system named is KB. Put plainly: Cytotoxicity against human KB cells assessed as cell growth inhibition by SRB assay. Conditions: read-out: ED50 (the source's name). Type of test: functional.
Test [14] concerns P388. Put plainly: Cytotoxicity against mouse P388 cells assessed as cell growth inhibition by SRB assay. In kind it is functional. Conditions: read-out: ED50 (the source's name).
The test system of test [15] is MCF7. Put plainly: Cytotoxicity against human MCF7 cells assessed as cell growth inhibition by SRB assay. In kind it is functional. Conditions: read-out: ED50 (the source's name).
Test [16] in a line: Antimigratory activity against human LX2 cells assessed as inhibition rate at 5 uM relative to control. Type of test: functional. Conditions: LX-2.
The nature of test [17]: Inhibition of TGF-beta1 induced mesenchymal transformation in human A549 cells assessed as inhibition rate at 0.63 uM relative to control. Type of test: functional.
The nature of test [18]: Antimigratory activity against Ang II-induced human Cardiac fibroblast cells assessed as inhibition rate at 0.63 uM relative to control. In kind it is functional.
For test [19], the system named is K562. Put plainly: Antiproliferative activity against human K562 cells assessed as cell growth inhibition measured after 24 hrs by MTT assay. Type of test: functional, cell-based. Conditions: K562, 24 h. Background: Formazan colour is commonly taken as a measure of viable cells.
The subject of test [20] is MCF7. The test is described as follows: Antiproliferative activity against human MCF7 cells assessed as cell growth inhibition measured after 24 hrs by MTT assay. In kind it is functional, cell-based.
Test [21] concerns Rattus norvegicus. The test is described as follows: Anti-inflammatory activity against egg white-induced paw edema in rat model assessed as detumescence rate measured after 6 hrs relative to control. In kind it is functional.
Test [22] deals with HCT-116. Put plainly: Antiproliferative activity against human HCT-116 cells assessed as cell growth inhibition measured after 24 hrs by MTT assay. Type of test: functional.
In test [23] the test system is A549. The test is described as follows: Antiproliferative activity against human A549 cells assessed as cell growth inhibition measured after 48 hrs by MTT assay. Type of test: functional, cell-based. Conditions: A549, 48 h.
Test [24] deals with HepG2. The test is described as follows: Antiproliferative activity against human HepG2 cells assessed as cell growth inhibition measured after 48 hrs by MTT assay. Type of test: functional, cell-based. To be noted: HepG2, 48 h.
Test [25] is described as follows: Antiproliferative activity against human HCT cell line assessed as cell growth inhibition measured after 48 hrs by MTT assay. Type of test: functional, cell-based.
Test [26] in a line: Antiproliferative activity against human NTUB1 cells assessed as cell growth inhibition measured after 48 hrs by MTT assay. To be noted: NTUB1, 48 h. In kind it is functional, cell-based.
Test [27] relates to MGC-803. The test is described as follows: Antiproliferative activity against human MGC-803 cells assessed as cell growth inhibition measured after 48 hrs by MTT assay. Conditions: MGC-803, 48 h. In kind it is functional, cell-based.
For test [28], the system named is J82. The test is described as follows: Antiproliferative activity against human J82 cells assessed as cell growth inhibition measured after 48 hrs by MTT assay. Conditions: J82, 48 h. Type of test: functional, cell-based.
Test [29] has as its system NB-4. Put plainly: Antiproliferative activity against human NB-4 cells assessed as cell growth inhibition measured after 48 hrs by MTT assay. In kind it is functional, cell-based. Conditions: NB-4, 48 h.
Test [30] deals with MCF7. Put plainly: Antiproliferative activity against human MCF7 cells assessed as cell growth inhibition measured after 48 hrs by MTT assay. To be noted: MCF7, 48 h. In kind it is functional, cell-based.
In test [31] the test system is T-24. The test is described as follows: Antiproliferative activity against human T24 cells assessed as cell growth inhibition measured after 48 hrs by MTT assay. To be noted: T-24, 48 h. Type of test: functional, cell-based.

Take `C=C1CCC2[C@](C)(COC(C)=O)[C@H](OC(C)=O)CC[C@@]2(C)[C@@H]1C/C=C1/C(=O)OC[C@H]1OC(C)=O` (stereo partly specified): the inhibition in vivo at 200 mg/kg in [1] was found to be 50.4%.

Consider `C=C1CC[C@@H]2[C@](C)(CO)[C@H](O)CC[C@@]2(C)[C@@H]1C/C=C1/C(=O)OC[C@@H]1Oc1ccc([N+](=O)[O-])cc1OC`, for which the EC50 in [2] worked out at 2000 nM.

As for `C=C1CCC2[C@](C)(CO)C(=O)CC[C@@]2(C)[C@@H]1C/C=C1/C(=O)OC[C@@H]1Oc1cccc2cccnc12` (stereo partly specified), the IC50 in test [3] worked out at 27600 nM; in test [4], 27900 nM; in test [5] it was 9100 nM.

For `C=C1CCC2[C@](C)(CO)/C(=N\O)CC[C@@]2(C)[C@@H]1/C=C/C1=CCOC1=O` (stereo partly specified), the IC50 in [6] is 40900 nM.

For the molecule `C=C1CCC2[C@](C)(CO)[C@H](O)CC[C@@]2(C)[C@@H]1/C=C/C1=CC(=C\c2ccc(Cl)cc2)/OC1=O` (stereo partly specified), the inhibition in vivo at 250 mg/kg in [7] is over 85%. The inhibition in vivo at 15 mg/kg in test [8] is over 90%. Also, the inhibition in vivo at 150 µmol/kg in [9] is over 85%.

`C=C1CC[C@@H]2[C@](C)(CO[Si](C)(C)C(C)(C)C)[C@H](OC(C)=O)CC[C@@]2(C)[C@@H]1CC(OC(C)=O)C1=CCOC1=O` (stereo partly specified): the EC50 in test [10] came out at 1980 nM; in test [11], 2090 nM; in [12], 2000 nM; in test [13], 2350 nM; in test [14], 550 nM; in test [15], 2130 nM.

Consider `C[C@@]12CCC3[C@](C)(CO)[C@H](O)CC[C@@]3(C)[C@@H]1CC(C1=C/C(=C\c3ccc(Cl)cc3)OC1=O)O2` (stereo partly specified), for which, in test [16], the inhibition at 5 µM was over 60%. Further, the inhibition at 0.63 µM in test [17] is over 70%; in test [18] it was over 65%.

On to `C=C1CCC2[C@](C)(CO)[C@H](O)CC[C@@]2(C)[C@@H]1C/C=C1/C(=O)OC[C@@H]1Oc1cccc2cccnc12` (stereo partly specified), for which the 50% inhibitory concentration (IC50) in test [3] was determined as 37500 nM; in [4], 21600 nM; in test [5], 6300 nM.

With `C=C1CCC2[C@]3(C)COC(c4ccc(OCc5cn(-c6ccc(C(C)=O)cc6)nn5)cc4)O[C@@H]3CC[C@@]2(C)[C@@H]1C/C=C1/C(=O)OCC1O` (stereo partly specified), the IC50 in test [19] came out at 8000 nM.

In the case of `C=C1CCC2[C@](C)(CO)[C@H](OC(=O)CCC(=O)OC(C)CCOc3no[n+]([O-])c3S(=O)(=O)c3ccccc3)CC[C@@]2(C)[C@@H]1/C=C/C1=CCOC1=O` (stereo partly specified), the IC50 in [19] came to 1550 nM; in test [20] (MCF7, 24 h), 2910 nM.

Regarding `C=C1CCC2[C@](C)(CO)[C@H](O)CC[C@@]2(C)[C@@H]1CCC1=CCOC1=O` (stereo partly specified), the “inhibition (INH)” value in [21] was 87.53%.

On to `C=C1CCC2[C@]3(C)COC(c4ccccc4Br)O[C@@H]3CC[C@@]2(C)[C@@H]1C/C=C1/C(=O)OC[C@H]1O` (stereo partly specified), for which the 50% growth inhibitory concentration (GI50) in test [20] (MCF7, time 24 hrs) came to 5300 nM; in test [22], 4900 nM.

`CC1=C2[C@H]3O[C@]34CC[C@@H]3[C@](C)(COC(=O)c5ccccc5)[C@H](OC(=O)c5ccccc5)CC[C@@]3(C)[C@@H]4[C@H]3O[C@@]23OC1=O`: the IC50 is 2030 nM in [23]; 2310 nM in test [24]; 940 nM in test [25]; 550 nM in test [26]; 1850 nM in test [27]; 2040 nM in test [28]. In addition, the IC50 in [29] turned out to be 870 nM; in test [30], 1210 nM; in test [31], 1040 nM.
